Assay results from patent US8420144B2, “Kokumi-imparting agent, method of using, and compositions containing same” (Ajinomoto Co., Inc., priority 2005, dated 2013).

Columns and labels:
[1] = Quantitative sensory evaluation test: imparting kokumi to consomme soup; format: in vivo, human; settings: n=12, 0 control, 3 intense, 5 extremely intense
Method: The intensity of activity for imparting kokumi to consomme soup of each peptide having confirmed calcium receptor activation activity was measured by a quantitative sensory evaluation test, performed as follows: Consomme soup was prepared by dissolving consomme soup powder (35% of sodium chloride, 18% of sodium glutamate, 0.2% of inosine monophosphate, 0.3% of white pepper powder, 0.5% of black pepper powder, 8.0% of beef extract powder, 3.0% of white wine powder, 2.0% of celery powder, 8.0% of Chinese cabbage extract powder, 2.5% of onion extract powder, […]) at a concentration of 5 g/dl. To this consomme soup, samples of either γ-Glu-Cys-Gly (glutathione) or γ-Glu-Val-Gly was added to a concentration of 0.0001 to 1 g/dl, and the intensity of the kokumi-imparting activity was measured for each sample. The consomme soup with the samples that became acidic after dissolution of the samples with respect to the consomme soup without the samples was adjusted with NaOH to pH not lower or higher by 0.2 than pH of the consomme soup without the samples before use. Sensory evaluation scores were used for evaluation as follows: 0 points for the control sample, 3 points for intense activity as compared to the control, and 5 points for extremely intense activity as compared to the control, and the test was performed with n=12.

[2] = biological target: T1, human CaSR (Homo sapiens, UniProt P41180); assay: Calcium receptor (CaSR) activation activity: calcium imaging in HEK 293 cells expressing human CaSR; format: cell-based; settings: concentration giving 50% of the maximal activity; single values n = 1, others n = 2 or 3
T1 construct: expressed in transfected cells; host or cells: HEK 293 cells, transient transfection of a CMV-promoter expression vector
T1 sequence (P41180 20-1078): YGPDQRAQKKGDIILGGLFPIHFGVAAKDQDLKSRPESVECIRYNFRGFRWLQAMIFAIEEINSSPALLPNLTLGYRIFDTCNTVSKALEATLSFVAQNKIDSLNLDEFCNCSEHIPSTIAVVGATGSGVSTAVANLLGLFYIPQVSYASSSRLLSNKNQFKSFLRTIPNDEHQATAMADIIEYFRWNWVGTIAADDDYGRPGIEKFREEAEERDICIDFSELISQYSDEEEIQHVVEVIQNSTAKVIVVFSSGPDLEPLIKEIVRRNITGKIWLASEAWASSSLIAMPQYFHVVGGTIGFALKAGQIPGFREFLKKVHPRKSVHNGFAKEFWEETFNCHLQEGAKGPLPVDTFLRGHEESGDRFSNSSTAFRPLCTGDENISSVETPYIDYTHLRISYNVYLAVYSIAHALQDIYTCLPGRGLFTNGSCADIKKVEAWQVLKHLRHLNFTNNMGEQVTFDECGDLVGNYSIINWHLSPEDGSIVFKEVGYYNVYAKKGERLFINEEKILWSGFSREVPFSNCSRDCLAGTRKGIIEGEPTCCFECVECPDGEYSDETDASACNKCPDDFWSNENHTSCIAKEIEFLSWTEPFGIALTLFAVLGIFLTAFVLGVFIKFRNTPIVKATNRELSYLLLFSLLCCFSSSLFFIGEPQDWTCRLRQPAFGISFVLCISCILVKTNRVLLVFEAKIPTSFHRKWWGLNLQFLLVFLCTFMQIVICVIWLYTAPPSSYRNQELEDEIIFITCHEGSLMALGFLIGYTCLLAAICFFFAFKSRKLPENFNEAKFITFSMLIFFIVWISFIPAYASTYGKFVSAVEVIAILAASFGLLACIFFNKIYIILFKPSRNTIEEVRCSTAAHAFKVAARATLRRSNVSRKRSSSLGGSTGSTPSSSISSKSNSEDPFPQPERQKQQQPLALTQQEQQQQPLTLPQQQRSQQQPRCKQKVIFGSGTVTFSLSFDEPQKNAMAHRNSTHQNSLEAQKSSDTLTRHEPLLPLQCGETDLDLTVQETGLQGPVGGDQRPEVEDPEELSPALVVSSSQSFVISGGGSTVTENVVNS
Method: Calcium receptor (CaSR) activation activity of peptides obtained in Examples 2, 3, and 5-12 were measured as follows. A cDNA of human CaSR obtained in Example 1 of WO2007/055393A1 was inserted into an expression vector for an animal cell having a CMV promoter, and the cDNA in the vector was introduced into HEK 293 cells, which had multiplied to 70% of the maximal cell density, using FuGINE6 (Roche Ltd.). After culturing the cells for 4 to 48 hours, 0.6-1.0×10^5 of cells/well were disseminated into a 96-well plate, subsequently, the cells were cultured for one day, and then stained using Calcium 3 Assay Kit. The presence or absence of a calcium receptor activation activity of each peptide was confirmed by a calcium imaging method using FLEXSTATION (Molecular Devices Inc., instruction manual). Furthermore, the concentration of each peptide giving 50% of the maximal activity (EC50) was calculated using a dose characteristic curve.

| Structure (SMILES) | Intensity of kokumi: Aftertaste ([1]; 0.01 g/dl) [points] | Intensity of kokumi: First and middle taste ([1]; 0.01 g/dl) [points] | Intensity of kokumi: Aftertaste ([1]; 0.0005 g/dl) [points] | Intensity of kokumi: First and middle taste ([1]; 0.0005 g/dl) [points] | Intensity of kokumi: Aftertaste ([1]; 0.001 g/dl) [points] | Intensity of kokumi: First and middle taste ([1]; 0.001 g/dl) [points] | Intensity of kokumi: Aftertaste ([1]; 0.1 g/dl) [points] | Intensity of kokumi: First and middle taste ([1]; 0.1 g/dl) [points] | EC50 [2] [nM] |
| --- | --- | --- | --- | --- | --- | --- | --- | --- | --- |
| N[C@@H](CCC(=O)N[C@@H](CS)C(=O)NCC(=O)O)C(=O)O [γ-Glu-Cys-Gly, reference compound] | 3.0 | 3.0 | – | – | – | – | – | – | – |
| CC(C)[C@H](NC(=O)CC[C@H](N)C(=O)O)C(=O)NCC(=O)O [γ-Glu-Val-Gly] | 5.0 | 5.0 | 3.0 | 2.5 | 3.5 | 3.0 | 5.0 | 5.0 | 23 to 55 |
